Assay results reported in patent US20060079453A1, “Hla binding peptides and their uses” (priority 2002, published 2006).
No end group written: not given here.

Columns and labels:
Test in all cases: biochemical
Format in all cases: binding
[1] = biological target: HLA-DR DRB1*0101 (DR1) (Homo sapiens, UniProt P01903+P01911, A100R/D57E/F55L/F60I/F76Y/I96L/L162R/M171V/P40L/Q125E/R42F/V115G/Y59C); settings: DRB1 *0101
[2] = biological target: HLA-DR DRB3*0101 (DR52) (Homo sapiens, UniProt P01903+P79483)
[3] = biological target: HLA-DR DRB5*0101 (DR51) (Homo sapiens, UniProt P01903+Q30154); settings: DRB5 *0101
[4] = biological target: HLA-DR DRB1*0901 (DR9) (Homo sapiens, UniProt P01903+P01911, A100R/A103E/D57H/D86V/F55Y/F60I/F76Y/I96F/K127E/L162R/M171V/P40D/Q125H/Q99R/R33Q/R42F/S133A/S66N/T210M/V115G/W38K/Y107V/Y59G/Y89S); settings: DRB1 *0901
[5] = biological target: HLA-DR DRB1*0405 (DR4) (Homo sapiens, UniProt P01903+P01911, A100R/A169T/D86S/F76Y/I96L/K127E/L162R/M171V/N62H/P40V/Q125Y/R42H/S133A/S149N/S66Y/V115G/V209L/W38E); settings: DRB1 *0405
[6] = biological target: HLA-DR DRB1*0301 (DR3) (Homo sapiens, UniProt P01903+P01911, A100K/A102G/A103R/A169T/F55Y/I96L/K41T/L162R/M171V/P40S/Q125H/Q178H/Q39Y/R42S/S66N/T106N/T262R/W38E/Y61H)
[7] = biological target: HLA-DR DRB1*0401 (DR4) (Homo sapiens, UniProt P01903+P01911, A100K/A169T/F76Y/I96L/K127E/L162R/M171V/N62H/P40V/Q125Y/R42H/S133A/S149N/S66Y/V115G/V209L/W38E); settings: DRB1 *0401
[8] = biological target: HLA-DR DRB1*1101 (DR11) (Homo sapiens, UniProt P01903+P01911, A100R/A169T/A87E/I96F/K41T/L162R/M171V/P40S/Q125H/Q178H/Q39Y/Q99D/R42S/S66Y/T262R/V115G/W38E); settings: DRB1 *1101
[9] = biological target: HLA-DR DRB1*1302 (DR13) (Homo sapiens, UniProt P01903+P01911, A100E/A169T/K41T/L162R/M171V/P40S/Q125H/Q178H/Q39Y/Q99D/R42S/S66N/T262R/V115G/W38E/Y61H); settings: DRBI *1302
[10] = biological target: HLA-DR DRB1*0802 (DR8) (Homo sapiens, UniProt P01903+P01911, A100R/A103L/A169T/F76Y/H45Y/I96F/K41T/L162R/M171V/P40S/Q125H/Q178H/Q39Y/Q99D/R218S/R42G/S66Y/V115G/W38E)
[11] = biological target: HLA-DR DRB1*0701 (DR7) (Homo sapiens, UniProt P01903+P01911, A100R/A102G/A103Q/D57E/D86V/E43K/F76Y/K127E/L162R/M171V/P40G/Q125H/Q99D/R33Q/R42Y/R54Q/S133A/S66F/T210M/V115G/Y107V/Y59L/Y89S); settings: DRB1 *0701
[12] = biological target: HLA-DR DRB4*0101 (DR53) (Homo sapiens, UniProt P01903+P13762, G164S); settings: DRB4 *0101
[13] = biological target: HLA-DR DRB1*1501 (DR15) (Homo sapiens, UniProt P01903+P01911); settings: DRBI *1501

Chain of HLA-DR DRB1*1302 (DR13) (P01903 26-254 limits assumed, other chains not shown): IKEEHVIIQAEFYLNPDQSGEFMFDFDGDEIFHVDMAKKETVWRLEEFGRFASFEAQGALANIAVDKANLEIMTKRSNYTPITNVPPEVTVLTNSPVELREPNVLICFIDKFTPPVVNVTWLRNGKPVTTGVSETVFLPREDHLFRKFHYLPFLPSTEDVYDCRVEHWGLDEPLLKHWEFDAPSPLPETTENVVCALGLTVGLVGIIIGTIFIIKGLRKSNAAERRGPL
Chain of HLA-DR DRB1*0301 (DR3) (P01903 26-254 limits assumed, other chains not shown): as above
Chain of HLA-DR DRB1*1101 (DR11) (P01903 26-254 limits assumed, other chains not shown): as above

Sequence	IC50 [1]	IC50 [2]	IC50 [3]	IC50 [4]	IC50 [5]	IC50 [6]	IC50 [7]	IC50 [8]	IC50 [9]	IC50 [10]	IC50 [11]	IC50 [12]	IC50 [13]
KLSQELHKLQTYPRT	0.019 µM	> 263 µM	0.037 µM	19.1 µM	12.2 µM	197 µM	19.7 µM	2.38 µM	> 12.6 µM	28.7 µM	85.5 µM	0.87 µM	–
VEALYLVTGERGFFY	0.0099 µM	17.2 µM	0.078 µM	0.683 µM	2.34 µM	2.01 µM	0.06 µM	4.86 µM	–	1.22 µM	0.195 µM	0.013 µM	–
QSQKLLWQLNGRLEY	0.127 µM	5.61 µM	0.402 µM	5.92 µM	0.055 µM	33.4 µM	0.084 µM	> 60.6 µM	0.155 µM	0.991 µM	–	–	0.108 µM
TSLTFSESIPTPSNR	–	> 95.2 µM	> 1.34 µM	2.46 µM	0.686 µM	17.4 µM	0.018 µM	22.2 µM	0.016 µM	17.6 µM	–	3.48 µM	–
FVNQHLCGSHLVEAL [FVNQHLCGSHLVEAL]	0.583 µM	> 95.2 µM	47.2 µM	> 63 µM	> 20.7 µM	> 187 µM	19.2 µM	> 1110 µM	10.6 µM	> 54.4 µM	0.679 µM	–	1.2 µM
NSLVYGASDSNIYDL	–	31.6 µM	> 9.51 µM	> 59.5 µM	1.23 µM	> 51.4 µM	0.24 µM	> 15.4 µM	–	> 33.3 µM	0.297 µM	3.29 µM	0.971 µM
FVNQHLCGSDLVEAL [FVNQHLCGSDLVEAL]	0.117 µM	10 µM	> 43.3 µM	> 63 µM	14.9 µM	> 74.8 µM	19.2 µM	> 1110 µM	20.2 µM	> 54.4 µM	–	24.5 µM	–
AVTIYEMLQNIFAIF	0.017 µM	2.83 µM	14 µM	4.54 µM	0.163 µM	23.7 µM	–	29.7 µM	0.109 µM	6.87 µM	–	1.12 µM	–
GSHLVEALYLVTGER	0.645 µM	18.2 µM	11.4 µM	> 63 µM	14.4 µM	> 176 µM	15.8 µM	> 10.5 µM	12.2 µM	> 54.4 µM	0.553 µM	0.225 µM	–
QHLTGSHLVEALYLV	0.0093 µM	4.03 µM	23.7 µM	42.3 µM	7.42 µM	50.3 µM	> 16.1 µM	> 10.5 µM	6.86 µM	> 54.4 µM	0.038 µM	–	0.184 µM
TSNLSTTVLGKLSQE	–	> 263 µM	2.53 µM	2.47 µM	9.28 µM	86.8 µM	8.02 µM	0.534 µM	9.33 µM	2.06 µM	31.3 µM	–	7.7 µM
VEALYLVCGERGSFY	0.088 µM	> 95.2 µM	0.804 µM	6.31 µM	6.11 µM	9.97 µM	–	> 10.5 µM	4.29 µM	> 54.4 µM	6.49 µM	–	1.24 µM
VEALYLVCGERGFFY	0.076 µM	4.44 µM	25.5 µM	2.23 µM	1.04 µM	17.6 µM	0.209 µM	3.56 µM	4.4 µM	24.6 µM	3.87 µM	0.03 µM	–
RSSNTQTQKLLWQLN	10.5 µM	0.751 µM	8.55 µM	> 77.3 µM	12.6 µM	44.3 µM	2.14 µM	> 42.6 µM	–	1.28 µM	27.7 µM	0.026 µM	2.74 µM
EQTTTSITSLYQLEN	19 µM	> 18.7 µM	48.5 µM	17.4 µM	0.272 µM	> 144 µM	0.17 µM	> 10.5 µM	–	> 54.4 µM	2.23 µM	29.6 µM	–
